These compounds were tested against mitochondrial succinate dehydrogenase (SDH) (Zymoseptoria tritici, UniProt F9X9V6+F9XH52+O42772, N33T/N34T) (assay: biochemical). Conditions: IC50.

Compound	IC50 [nM]
Cc1cc(OC(C)C)ccc1C(=O)C(C)(C)NC(=O)c1sccc1C [Isofetamid, N‐[1,1‐dimethyl‐2‐(4‐isopropoxy‐o‐tolyl)‐2‐oxoethyl]‐3‐methylthiophene‐2‐carboxamide]	46 ± 9
Cn1cc(C(=O)Nc2ccc(F)cc2-c2ccc(Cl)c(Cl)c2)c(C(F)F)n1 [Bixafen, bixafen]	31 ± 17
O=C(NCCc1ncc(C(F)(F)F)cc1Cl)c1ccccc1C(F)(F)F [Fluopyram, fluopyram]	134 ± 67

These compounds were tested against mitochondrial succinate dehydrogenase (SDH) (Zymoseptoria tritici, UniProt F9X9V6+F9XH52+O42772, N33T/N34T/V106L) (assay: biochemical). Conditions: IC50.

Compound	IC50 [nM]
Cc1cc(OC(C)C)ccc1C(=O)C(C)(C)NC(=O)c1sccc1C [Isofetamid, N‐[1,1‐dimethyl‐2‐(4‐isopropoxy‐o‐tolyl)‐2‐oxoethyl]‐3‐methylthiophene‐2‐carboxamide]	> 32000
Cn1cc(C(=O)Nc2ccc(F)cc2-c2ccc(Cl)c(Cl)c2)c(C(F)F)n1 [Bixafen, bixafen]	44 ± 11
O=C(NCCc1ncc(C(F)(F)F)cc1Cl)c1ccccc1C(F)(F)F [Fluopyram, fluopyram]	12400 ± 1320

From publication PMC5814837 (Pest Management Science, 2017)
